These results are taken from patent US12091398B2, “PD-L1 antagonist compound” (ADLAI NORTYE BIOPHARMA CO., LTD., priority 2019, dated 2024).

This test has as its system PD-1/PD-L1 interaction. Description: Cell based PD-1/PD-L1 NFAT reporter assay. Further details: species or system human. The note with it: Homo sapiens, PD-1/NFAT-Reporter-Jurkat cells co-cultured with TCR activator/PD-L1-CHO cells, 6 hour incubation, luciferase, calibrated to Atezolizumab 10 nM, read-out: Absolute EC50. In outline:
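Compounds preincubated 30 min on TCR activator/PD-L1 CHO cells seeded overnight, then co-cultured 6 h with PD-1/NFAT-luciferase Jurkat cells; luminescence read by ONE-Glo. Percent inhibition normalised to 0.1% DMSO vehicle and to atezolizumab (10 nM) as positive control.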
For orientation: A reporter such as luciferase makes a cellular process visible.

Each structure is given as a SMILES string. Like-named read-outs stand apart in the source and are kept apart here.

In the case of `COc1cc(Cn2cnc3c(-c4cccc(-c5ccc(CNC[C@@H]6CCC(=O)N6)cc5)c4Cl)cccc32)c(Cl)cc1CN[C@@H](CO)C(=O)O` [Compound 93, (5-chloro-4-((4-(2-chloro-4′-(((((S)-5-oxopyrrolidin-2-yl)methyl)amino)methyl)-[1,1′-biphenyl]-3-yl)-1H-benzo[d]imidazol-1-yl)methyl)-2-methoxybenzyl)-L-serine], the EC50 (commonly the concentration giving half of the maximal effect) (6 h) came out at 2130 nM. The same measure, in the same setting: the same measure for `CN1CCC2(CC1)CCN(Cc1cccc(-c3cccc4c3cnn4Cc3cc(OCc4cncc(C#N)c4)c(CN[C@@H](CO)C(=O)O)cc3Cl)c1Cl)CC2` [Compound 94, (5-chloro-4-((4-(2-chloro-3-((9-methyl-3,9-diazaspiro[5.5]undecan-3-yl)methyl)phenyl)-1H-indazol-1-yl)methyl)-2-((5-cyanopyridin-3-yl)methoxy)benzyl)-L-serine]: more than 10000 nM; for `CN1CCC2(CC1)CCN(C(=O)c1cccc(-c3cccc4c3cnn4Cc3cc(OCc4cncc(C#N)c4)c(CN[C@@H](CO)C(=O)O)cc3Cl)c1Cl)CC2` [Compound 95, (5-chloro-4-((4-(2-chloro-3-(9-methyl-3,9-diazaspiro[5.5]undecane-3-carbonyl)phenyl)-1H-indazol-1-yl)methyl)-2-((5-cyanopyridin-3-yl)methoxy)benzyl)-L-serine]: more than 10000 nM. Regarding `CN1CCC2(CC1)CCN(c1cccc(-c3cccc4c3cnn4Cc3cc(OCc4cncc(C#N)c4)c(CN[C@@H](CO)C(=O)O)cc3Cl)c1Cl)CC2` [Compound 96, (5-chloro-4-((4-(2-chloro-3-(9-methyl-3,9-diazaspiro[5.5]undecan-3-yl)phenyl)-1H-indazol-1-yl)methyl)-2-((5-cyanopyridin-3-yl)methoxy)benzyl)-L-serine], the EC50 was determined as 2450 nM.
